In patent US9844534B2, “PKC delta inhibitors for use as therapeutics” (Faller & Williams Technology, LLC, priority 2012, dated 2017):

Experiments:
[1] = target: T1, PKC alpha (Homo sapiens, UniProt P17252); assay: PKC kinase activity assay (Omnia Kinase Assay); type: biochemical
T1 construct: purchased Invitrogen
Procedure: PKC Kinase Activity Assays: Assays were carried out using recombinant PKC alpha or PKC gamma, (Invitrogen) and the Omnia® Kinase Assays (Invitrogen) with a “PKC kinase-specific” peptide substrate. Incorporation of a chelation-enhanced fluorophore (CHEF) results in an increase in fluorescence ex360/em485) upon phosphorylation. The kit was used according to the manufacturer's instructions.

[2] = tested on: BON1 cells; assay: Cell proliferation assay (MTT/MTS); type: cell-based, human
From the text: (§1) Cell Lines: BON1, a human foregut (pancreatic) carcinoid tumor cell line (Parekh et al. 1994) was obtained from Kjell Oberg (Uppsala University, Sweden) through Dr. Evan Vosburgh. H727 cells, derived from a human bronchopulmonary carcinoid tumor (Schuller et al. 1987), were purchased from ATCC. The CNDT 2.5 cell line, initially described as a human midgut carcinoid tumor cell line (Van Buren et al. 2007), was provided by Dr. Lee Ellis, (MD Anderson Cancer Center). The provenance of this cell line is currently under review by the originator. BONI, H727, MCF10 and CNDT 2.5 cells were propagated in 10% FBS (Invitrogen); Dulbecco's Modification of Earle's Media/Hams F-12 50:50 media (Cellgro); 2 mM L-Glutamine (Invitrogen); 200 U Penicillin/ml; 200 μg Streptomycin/ml (Invitrogen); 10 ng/ml Nerve Growth Factor (Invitrogen); 1×MEM Non-Essential Amino Acids (Cellgro); 1×MEM Vitamin Solution (Cellgro); 1 mM Sodium Pyruvate; 0.015 M HEPES buffer (pH7.3) (American Bioanalytical).
(§2) Cell Proliferation Assays—Cell proliferation was assessed using an MTT [3-(4,5-dimethylthiazol-2-yl)-2,5-diphenyltetrazolium bromide] assay (Roche, Mannheim, Germany). The number of viable cells growing in a single well on a 96-well microtiter plate was estimated by adding 10 μl of MTT solution (5 mg/ml in phosphate-buffered saline [PBS]). After 4 h of incubation at 37° C., the stain is diluted with 100 μl of dimethyl sulfoxide. The optical densities are quantified at a test wavelength of 570 nm and a reference wavelength of 690 nm on a multiwell spectrophotometer. In some assays, MTS was used as substrate (Promega, Madison, Wis.), and the absorbance of the product was monitored at 490 nm.

[3] = tested on: CNDT 2.5 cells; assay: Cell proliferation assay (MTT/MTS); type: cell-based, human
From the text: as §1, §2

[4] = tested on: H727 cells; assay: Cell proliferation assay (MTT/MTS); type: cell-based, human
From the text: as §1, §2

[5] = tested on: H727 cells; assay: Cytotoxicity assay (LDH release); type: cell-based, human
From the text: Briefly, total culture medium was cleared by centrifugation. For assay of released LDH, supernatants were collected.

[6] = tested on: H727 cells; assay: Clonogenic assay; type: cell-based, human; details: H727, exposure 6-72 hr, replated without inhibitor
Procedure: Clonogenic Assays: 100,000 cells were seeded on 100 mm dishes 5 with 10 ml media per dish (Li et al. 2004). […] Cells were trypsinized; counted via Trypan Blue Exclusion Method in order to determine the number of live cells in the sample, and 500 live cells were seeded in triplicate onto 6 well plates. Cells were monitored for appropriate colony size and re-fed every three to four days. At Day 17, cells were stained with ethidium bromide (Guda et al. 2007) and counted using UVP LabWorks software.
LDH release assesses cytotoxic damage sufficient to compromise membrane integrity over a relatively short time-span. An alternative method, which assesses lethal, but not necessarily immediate, cumulative damage to the tumor cell is a clonogenic assay. In this assay, tumor cells which remain viable after exposure to the compound are tested for their ability to proliferate sufficiently over time to form colonies of tumor cells. H727 treated with vehicle or a PKC delta inhibitor at sub-optimal concentrations varying durations. After replating of viable cells in media without inhibitor, colony numbers were quantitated over time.

[7] = target: PKC delta (Homo sapiens, UniProt Q05655); details: cultured cells, given as 'in vivo'; read-out: IC50, inhibition of PKC delta in cultured cells; cited from earlier work
PKC delta, sequence (Q05655 whole entry): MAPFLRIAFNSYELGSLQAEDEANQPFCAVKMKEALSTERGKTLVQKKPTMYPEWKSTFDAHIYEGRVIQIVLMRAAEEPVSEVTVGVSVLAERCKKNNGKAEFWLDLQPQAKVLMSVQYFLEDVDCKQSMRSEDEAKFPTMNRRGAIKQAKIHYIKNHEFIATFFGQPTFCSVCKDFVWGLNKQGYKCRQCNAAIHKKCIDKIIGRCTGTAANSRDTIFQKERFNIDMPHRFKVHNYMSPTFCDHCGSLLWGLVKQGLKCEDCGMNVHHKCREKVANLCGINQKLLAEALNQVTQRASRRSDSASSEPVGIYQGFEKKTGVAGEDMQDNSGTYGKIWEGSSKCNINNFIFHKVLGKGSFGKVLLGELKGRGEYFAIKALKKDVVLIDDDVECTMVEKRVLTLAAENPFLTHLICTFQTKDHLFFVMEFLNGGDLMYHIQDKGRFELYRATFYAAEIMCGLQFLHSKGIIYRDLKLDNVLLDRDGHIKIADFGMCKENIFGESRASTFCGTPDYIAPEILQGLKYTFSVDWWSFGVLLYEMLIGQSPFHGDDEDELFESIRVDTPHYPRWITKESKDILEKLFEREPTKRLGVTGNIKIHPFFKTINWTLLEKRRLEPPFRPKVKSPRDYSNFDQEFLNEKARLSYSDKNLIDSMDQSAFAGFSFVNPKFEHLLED

[8] = tested on: PKC delta protein; details: longer periods of exposure; no effect on levels of other PKC isozymes; cited from earlier work
[9] = tested on: nontumorigenic murine or human cells; details: same culture conditions; cited from earlier work

## CC(=O)c1c(O)c(C)c(O)c(Cc2c(O)c3c(c(C(=O)/C=C/c4ccccc4)c2O)OC(C)(C)C=C3)c1O [rottlerin]
[1]
  IC50: > 50 µM
[2]; BON1, by 72 hrs, highest concentrations tested
  reduction in relative cell numbers: significant reduction in relative cell numbers
[2]; BON1, sub-optimal concentration (10 μM), re-fed with inhibitor after 72 hr
  growth-inhibitory effect on long-term exposure: growth-inhibitory effects persisted to 168 hr
[2]; BON1, sub-optimal concentration, inhibitor washed out, growth assessed over next 72 hrs
  duration of exposure needed to inhibit proliferation (washout): statistically significant by 24 hr of exposure
[2]; Homo sapiens, BON1, by 48 hrs, read-out: IC50, decrease in cell number
  IC50: ~5 µM
[3]; CNDT 2.5, by 72 hrs, highest concentrations tested
  reduction in relative cell numbers: significant reduction in relative cell numbers
[3]; CNDT, sub-optimal concentration (10 μM), re-fed with inhibitor after 72 hr
  growth-inhibitory effect on long-term exposure: growth-inhibitory effects persisted to 168 hr
[3]; Homo sapiens, CNDT 2.5, by 48 hrs, read-out: IC50, decrease in cell number
  IC50: ~5 µM
[4]; H727, by 72 hrs, highest concentrations tested
  reduction in relative cell numbers: significant reduction in relative cell numbers
[4]; Homo sapiens, NCI-H727, H727, by 48 hrs, read-out: IC50, decrease in cell number
  IC50: ~5 µM
[5]; H727, 24, 48 and 72 hours
  cytotoxicity as assessed by LDH release: cytotoxicity increasing as a function of time and concentration
[5]; H727, p<0.003
  LDH release versus vehicle control, significance: reached significance by 24 hr of exposure
[6]
  effect on clonogenic capacity versus DMSO control: reached significance (p=0.0051) at 6 hr of exposure
[7]
  IC50: 5 µM
[8]
  down-regulation of PKC delta protein in cells: significantly down-regulates PKC delta protein
[9]
  effect on growth of nontumorigenic cells: no significant effect on the growth

## PKC delta-specific siRNA: siRNA duplexes targeting PKC delta (SEQ ID NO 1 and 2), obtained from Qiagen (chain 1 GAUGAAGGAGGCGCUCAGTT; chain 2 GGCUGAGUUCUGGCUGGACTT; chemistry not given here)
[2]; BON1, siRNA knockdown, MTS
  effect on proliferation: profound inhibition of proliferation
[3]; CNDT, siRNA knockdown, MTS
  effect on proliferation: profound inhibition of proliferation
